Values belong to the molecule of their own block, whether it stands above or below them. Ends that are not written are not given here.
Assays:
[1] = tested on: angiotensin converting enzyme (ACE); assay: Purified ACE from rabbit lungs (Sigma, St. Louis, Mo.) dissolved in PBS (50 mM, pH 7.5, containing 300 mM NaCl and 10 μM ZnCl2); conditions: 37° C., up to 60 min
[2] = human plasma as a source of aminopeptidase M (AmM); conditions: up to 60 min
[3] = tested on: carboxypeptidases of the N type (CPN); conditions: cited from earlier work
[4] = tested on: carboxypeptidases of the M type (CPM); conditions: cited from earlier work
BKB1 receptor [5] = biological target: T1, BKB1 receptor (Homo sapiens, UniProt P46663); assay: Isolated human umbilical vein (hUV) organ bath, antagonist potency pA2; format: cell-based; design: the hUV that contains BKB1 and BKB2 receptors; from tissue; host or cells: isolated human umbilical vein (hUV)
T1 sequence (P46663 1-353): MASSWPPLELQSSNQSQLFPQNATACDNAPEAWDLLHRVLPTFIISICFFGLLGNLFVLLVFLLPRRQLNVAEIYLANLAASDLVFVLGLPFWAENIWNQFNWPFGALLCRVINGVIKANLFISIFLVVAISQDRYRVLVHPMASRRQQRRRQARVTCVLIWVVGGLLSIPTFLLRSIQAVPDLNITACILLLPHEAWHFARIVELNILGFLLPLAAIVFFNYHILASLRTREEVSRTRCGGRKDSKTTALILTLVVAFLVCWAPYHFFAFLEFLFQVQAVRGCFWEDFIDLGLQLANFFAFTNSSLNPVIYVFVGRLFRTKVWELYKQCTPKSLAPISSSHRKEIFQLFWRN
Procedure: (§1) Selected antagonists were tested for activities in three isolated organs: (1) the rabbit aorta (rbA), (2) the human umbilical vein (hUV) and (3) the rabbit jugular vein (rbJV).
(§2) All details regarding the procurements of human umbilical cords and rabbit vessels as well as, the procedures for preparing the isolated organs and the experimental protocols are described in these respective publications: rbA (Rioux et al. 1973, Can J Physiol Pharmacol 51, 114–121); hUV (Gobeil et al. 1996, Br J Pharmacol 118, 289–294), and rbJV (Gaudreau et al. 1981, Can J Physiol Pharmacol 59, 371–379).
(§3) The rabbit jugular vein (a pure BKB2 receptor system) was used to exclude any action of the new compounds on the BKB2 receptor and thus establish their selectivity. All tissues were treated with captopril (1 μM) to prevent the degradation of the peptidic agonists.
(§4) Repeated applications of a single and double concentration of BK (on rbJV,) or of desArg^9BK (rbA and hUV) were made in the absence and in presence of the various peptides to evaluate their apparent affinities as antagonists, in terms of pA2 (-log10 of the molar concentration of antagonist that reduces the effect of a double concentration of agonist to that of a single one) (Schild 1947, Br J Pharmacol 2, 189–206).

[6] = biological target: T2, angiotensin converting enzyme (ACE) (Oryctolagus cuniculus, UniProt P12822); assay: In vitro metabolic stability against purified rabbit lung ACE; format: in vitro ADME; conditions: purified angiotensin converting enzyme from rabbit lung, pH 7.5, peptide 200 μM, 60 min at 37° C., mean ± SEM of 3, read-out: Peptide metabolism (%) Rabbit lung ACE
T2 construct: In Vitro Biochemical Stability Assays Against Purified Native Enzymes; purchased Sigma, St. Louis, Mo; host or cells: rabbit lung
T2 sequence (P12822 34-1310): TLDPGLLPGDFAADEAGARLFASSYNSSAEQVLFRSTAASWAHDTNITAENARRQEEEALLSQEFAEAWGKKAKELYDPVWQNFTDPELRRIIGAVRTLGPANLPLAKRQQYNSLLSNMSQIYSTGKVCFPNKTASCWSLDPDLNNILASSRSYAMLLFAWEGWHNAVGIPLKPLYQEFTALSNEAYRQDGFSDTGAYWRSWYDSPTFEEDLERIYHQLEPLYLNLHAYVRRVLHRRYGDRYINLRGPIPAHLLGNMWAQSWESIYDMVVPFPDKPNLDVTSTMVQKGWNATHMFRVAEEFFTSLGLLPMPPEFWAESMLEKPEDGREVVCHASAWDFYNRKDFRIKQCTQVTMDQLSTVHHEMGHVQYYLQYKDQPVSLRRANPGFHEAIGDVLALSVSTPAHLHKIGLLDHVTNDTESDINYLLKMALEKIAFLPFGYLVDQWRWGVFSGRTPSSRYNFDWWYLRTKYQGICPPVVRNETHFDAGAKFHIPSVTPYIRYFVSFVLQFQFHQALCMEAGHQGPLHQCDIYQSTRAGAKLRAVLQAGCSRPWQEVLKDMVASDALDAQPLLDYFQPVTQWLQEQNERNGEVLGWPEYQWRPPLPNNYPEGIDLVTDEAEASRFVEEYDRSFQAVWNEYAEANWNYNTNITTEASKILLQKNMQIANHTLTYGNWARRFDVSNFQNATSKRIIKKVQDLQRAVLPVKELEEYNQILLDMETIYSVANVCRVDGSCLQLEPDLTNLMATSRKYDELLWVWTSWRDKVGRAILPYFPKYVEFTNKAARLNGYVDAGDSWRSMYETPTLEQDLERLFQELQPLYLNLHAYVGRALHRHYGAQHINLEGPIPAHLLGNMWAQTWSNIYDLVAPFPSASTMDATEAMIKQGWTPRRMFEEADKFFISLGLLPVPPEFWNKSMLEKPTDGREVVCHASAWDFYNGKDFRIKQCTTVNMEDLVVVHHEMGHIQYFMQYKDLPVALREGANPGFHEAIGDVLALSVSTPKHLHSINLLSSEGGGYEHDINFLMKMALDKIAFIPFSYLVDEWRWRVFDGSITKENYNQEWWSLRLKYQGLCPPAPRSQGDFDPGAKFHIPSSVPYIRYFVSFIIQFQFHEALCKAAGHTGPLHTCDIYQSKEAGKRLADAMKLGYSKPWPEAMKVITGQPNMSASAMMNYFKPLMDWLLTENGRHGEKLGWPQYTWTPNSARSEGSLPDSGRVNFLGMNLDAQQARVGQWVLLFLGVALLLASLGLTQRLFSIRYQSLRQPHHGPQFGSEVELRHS
Procedure: (§5) These assays were performed using three enzyme preparations: purified angiotensin converting enzyme (ACE; from rabbit lung), human plasma as a, source of aminopeptidase M (AmM) and human platelets as a source of aminopeptidase P (AmP).
Purified ACE from rabbit lungs (Sigma, St. Louis, Mo.) was dissolved in PBS (50 mM, pH 7.5, containing 300 mM NaCl and 10 μM ZnCl2; the final concentration of ACE was 45 μg/ml). Each of the peptide antagonists (200 μM) was incubated for 60 min at 37° C. with ACE (8.5 μl) (total volume medium, 187.5 μl). The enzymatic reaction was then terminated by boiling.
The experimental protocol for the measurement of ACE activity has been described elsewhere (Drapeau et a). 1993, J Pharmacol Exp Ther 266, 192–198; Gobeil et al., 1996, supra).

aminopeptidase M (AmM) = biological target: T3, aminopeptidase M (AmM) (Homo sapiens, UniProt P15144); assay: In vitro metabolic stability against human plasma AmM; format: in vitro ADME; conditions: male, human plasma as source of aminopeptidase M, pH 7.5, peptide 200 μM, 60 min incubation, mean ± SEM of 3, read-out: Peptide metabolism (%) Human plasma AmM
T3 construct: incubated for 60 min with 50 μl of human plasma; from tissue; host or cells: human plasma from heparinized blood of healthy male volunteers
Procedure: as §5
Human plasma AmM was prepared as previously described (Gobeil et al., 1999, Hypertension, 33, 823–829). Blood (5 ml) was withdrawn from healthy normotensive male Caucasian volunteers and put into heparinized tube (200 U). Blood samples were centrifuged at 1500 rpm for 15 min in a refrigerated tabletop centrifuge. The peptide antagonists (200 μM) were placed in a PBS buffer (50 mM, pH 7.5, containing 300 mM NaCl) and incubated for 60 min with 50 μl of human plasma (total volume of the medium, 375 μl). Immersing samples into boiling water and then cooling them on ice stopped the hydrolysis reaction. Control experiments have shown that ≈70% of the kininase activity that is present in the human plasma is abolished by amastatin (1 μM) and that the incubation of Lys-[Leu^8]desArg^9BK with this enzymatic preparation led to the production of [Leu^8]desArg^9BK as detected by electrospray mass spectrometry.

aminopeptidase P (AmP) = biological target: T4, aminopeptidase P (AmP) (Homo sapiens, UniProt Q9NQW7); assay: In vitro metabolic stability against human platelets AmP; format: in vitro ADME; conditions: mean ± SEM of 3 experiments
T4 construct: from tissue; host or cells: human platelets, freeze-thawed and sonicated, 43 000 x g supernatant
Procedure: as §5
Human platelet AmP was prepared as described by Maggiora et al. (1999, J Med Chem 42, 2394–2402). Human platelets (40 ml) were centrifuged at 250×g for 7 min at room temperature. The resulting supernatant was recentrifuged at 2790×g for 15 min at room temperature. Pellets were collected, resuspended in 40 ml of phosphate-buffered saline (PBS) containing 3.5% of sodium citrate, and then re-centrifuged at 2790×g for 15 min at room temperature. This washing step was repeated. Pellets were resuspended in 4 ml of PBS-sodium citrate, snap-frozen in liquid nitrogen, thawed at 37° C., sonicated briefly, and then centrifuged at 43 000×g for 2 h at 4° C. (Sorvall RC 5B, ss-34 rotor). The resulting supernatant was used for enzyme assays as described in Neugebauer et al. (Neugebauer et al. 2002, supra).

BKB1 receptor [7] = biological target: T5, BKB1 receptor (Oryctolagus cuniculus, UniProt P48748); assay: Isolated rabbit aorta (rbA) organ bath, antagonist potency pA2; format: cell-based; conditions: rabbit aorta without endothelium; mean ± SEM of 4–7 experiments
T5 construct: The rabbit aorta without endothelium (which contains only the BKB1 receptor); from tissue; host or cells: isolated rabbit aorta (rbA) without endothelium
T5 sequence (P48748 1-352): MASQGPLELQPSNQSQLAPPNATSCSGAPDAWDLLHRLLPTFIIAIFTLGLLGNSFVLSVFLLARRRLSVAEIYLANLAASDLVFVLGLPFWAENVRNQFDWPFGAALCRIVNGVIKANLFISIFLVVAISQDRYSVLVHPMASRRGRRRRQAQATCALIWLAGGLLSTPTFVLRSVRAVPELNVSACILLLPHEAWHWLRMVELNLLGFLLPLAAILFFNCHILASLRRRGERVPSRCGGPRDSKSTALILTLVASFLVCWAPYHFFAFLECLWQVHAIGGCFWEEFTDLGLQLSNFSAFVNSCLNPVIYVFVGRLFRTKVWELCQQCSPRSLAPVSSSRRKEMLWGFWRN
Procedure: as §1, §2
The rabbit aorta without endothelium (which contains only the BKB1 receptor) was used to determine the antagonistic activities of each compound.
as §3, §4

BKB2 receptor = biological target: T6, BKB2 receptor (Oryctolagus cuniculus, UniProt Q28642); assay: Isolated rabbit jugular vein (rbJV) organ bath, antagonist potency pA2; format: cell-based; conditions: BK as agonist
T6 construct: The rabbit jugular vein (a pure BKB2 receptor system); from tissue; host or cells: isolated rabbit jugular vein (rbJV)
T6 sequence (Q28642 1-367): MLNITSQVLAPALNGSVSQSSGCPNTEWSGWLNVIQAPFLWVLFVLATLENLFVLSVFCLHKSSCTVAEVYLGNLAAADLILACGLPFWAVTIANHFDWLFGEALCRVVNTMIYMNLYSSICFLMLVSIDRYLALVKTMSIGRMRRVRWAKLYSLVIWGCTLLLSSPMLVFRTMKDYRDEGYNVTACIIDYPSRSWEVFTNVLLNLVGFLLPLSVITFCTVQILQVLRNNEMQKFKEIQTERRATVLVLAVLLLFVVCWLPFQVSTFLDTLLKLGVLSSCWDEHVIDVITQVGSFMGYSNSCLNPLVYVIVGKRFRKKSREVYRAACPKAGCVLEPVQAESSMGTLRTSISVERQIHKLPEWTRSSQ
Procedure: as §1, §2, §3, §4

T3 sequence (P15144 whole entry): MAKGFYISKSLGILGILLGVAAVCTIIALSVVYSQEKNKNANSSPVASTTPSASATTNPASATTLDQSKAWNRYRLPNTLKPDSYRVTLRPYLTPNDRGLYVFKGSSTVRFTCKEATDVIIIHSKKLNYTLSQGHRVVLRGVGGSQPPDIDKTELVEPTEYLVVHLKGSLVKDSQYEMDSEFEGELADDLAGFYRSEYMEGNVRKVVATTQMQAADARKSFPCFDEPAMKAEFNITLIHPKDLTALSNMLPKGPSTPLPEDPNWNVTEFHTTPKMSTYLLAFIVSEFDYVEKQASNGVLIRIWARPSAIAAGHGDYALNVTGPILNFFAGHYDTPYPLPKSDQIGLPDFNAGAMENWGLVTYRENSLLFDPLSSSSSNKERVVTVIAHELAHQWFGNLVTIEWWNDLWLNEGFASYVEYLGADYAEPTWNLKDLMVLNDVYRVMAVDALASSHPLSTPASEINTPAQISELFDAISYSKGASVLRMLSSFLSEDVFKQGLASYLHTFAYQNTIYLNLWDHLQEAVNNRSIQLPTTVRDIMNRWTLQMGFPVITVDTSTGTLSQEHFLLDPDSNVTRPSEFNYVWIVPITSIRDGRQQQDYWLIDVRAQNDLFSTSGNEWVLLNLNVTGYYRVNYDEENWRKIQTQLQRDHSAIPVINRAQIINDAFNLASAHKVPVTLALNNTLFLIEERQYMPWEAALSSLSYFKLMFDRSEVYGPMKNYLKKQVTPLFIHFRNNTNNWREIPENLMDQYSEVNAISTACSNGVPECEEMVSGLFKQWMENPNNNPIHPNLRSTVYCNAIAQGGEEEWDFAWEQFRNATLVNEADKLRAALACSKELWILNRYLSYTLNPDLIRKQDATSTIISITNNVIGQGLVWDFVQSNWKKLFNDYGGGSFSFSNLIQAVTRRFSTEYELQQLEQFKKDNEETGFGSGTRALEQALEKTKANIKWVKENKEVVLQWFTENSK
T4 sequence (Q9NQW7 whole entry): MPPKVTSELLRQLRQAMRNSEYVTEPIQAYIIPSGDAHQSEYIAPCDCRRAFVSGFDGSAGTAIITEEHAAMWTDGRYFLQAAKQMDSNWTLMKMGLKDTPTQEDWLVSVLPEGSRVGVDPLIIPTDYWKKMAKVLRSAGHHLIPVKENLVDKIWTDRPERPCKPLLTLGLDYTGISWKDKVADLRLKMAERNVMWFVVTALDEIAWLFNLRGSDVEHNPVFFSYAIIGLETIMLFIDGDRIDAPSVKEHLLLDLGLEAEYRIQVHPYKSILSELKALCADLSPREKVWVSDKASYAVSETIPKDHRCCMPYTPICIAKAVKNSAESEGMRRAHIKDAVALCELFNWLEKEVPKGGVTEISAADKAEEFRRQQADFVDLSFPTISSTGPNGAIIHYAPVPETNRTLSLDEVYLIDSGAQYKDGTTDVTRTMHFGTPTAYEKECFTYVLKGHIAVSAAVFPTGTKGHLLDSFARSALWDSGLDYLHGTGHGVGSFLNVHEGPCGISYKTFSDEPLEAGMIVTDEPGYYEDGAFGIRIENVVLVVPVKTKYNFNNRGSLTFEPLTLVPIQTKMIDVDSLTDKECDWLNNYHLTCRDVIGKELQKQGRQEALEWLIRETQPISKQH

Molecule: RPPGFSPFR
cleaved bond [3]: Phe8-Arg9
cleaved bond [4]: Phe8-Arg9

Molecule: CC(C)C[C@H](NC(=O)[C@@H]1CCCN1C(=O)[C@H](CO)NC(=O)[C@H](Cc1ccccc1)NC(=O)CNC(=O)[C@@H]1CCCN1C(=O)[C@@H]1CCCN1C(=O)[C@H](CCCN=C(N)N)NC(=O)[C@@H](N)CCCCN)C(=O)O [Lys-[Leu^8]desArg^9-BK, Lys-[Leu^8] desArg^9BK, reference compound]
affinity higher than that of [Leu^8]desArg^9BK (BKB1 receptor [5]; BKB1 receptor antagonist affinity, effect of N-terminal Lys): at least 1.5 log units
metabolised at 1 h, 200 µM [6]: 93 ± 3%
metabolised at 1 h, 200 µM (aminopeptidase M (AmM)): 100%
Peptide metabolism (%) Human platelets AmP (aminopeptidase P (AmP)): 99 ± 1%

Molecule: Ac-Lys[Oic^2,(α-Me)Phe^5,D-βNal^7,Ile^8]desArg^9BK
not cleaved [1]: Peptide metabolism 0 % (60 min)
not cleaved [2]: Peptide metabolism 0 % (60 min)

Other lines, results leading:

cleaved bond [1]: Phe5-Ser6
fragment found [2]: [Leu^8]desArg^9BK
Molecule: Lys-[Leu^8] desArg^9BK

Antagonist potencies (pA2) BKB1-R hUV (BKB1 receptor [5]; human umbilical vein treated with HOE 140, mean ± SEM of 4–7 experiments): 8.49 ± 0.10
Antagonist potencies (pA2) BKB1-R rbA (BKB1 receptor [7]): 8.40 ± 0.12
Antagonist potencies (pA2) BKB2-R rbJV (BKB2 receptor): <6.00
Molecule: Ac-Lys-[D-βNal^7, Ile^8] desArg^9BK [Ac-Lys-[D-βNal^7, Ile^8]desArg^9-BK, reference compound]

Antagonist potencies (pA2) BKB1-R rbA (BKB1 receptor [7]): 8.30 ± 0.08
Antagonist potencies (pA2) BKB2-R rbJV (BKB2 receptor): <6.00
Molecule: Ac-Orn[Oic^2,Oic^3(α-Me)Phe^5,D-βNal^7,Ile^8]desArg^9BK

Source: patent publication US7211566B2 (Universite De Sherbrooke, priority 2003, dated 2007)
